Measurements as given in patent publication US11857550B2, “Benzathine analogs” (University of Pittsburgh—Of the Commonwealth System of …, priority 2012, dated 2024).

Columns and labels:
U937 monocyte = U937 monocyte Trypan blue cell death (LD50); type: cell-based, human; conditions: U937 monocytes, 16 h
Experimental: FIGS. 20A-20J is a table depicting benzathine compounds, and assay results. PBMC cells (0.6 ml at 1.5*10^6/ml) were treated with 2 ug/ml LPS for 16 hrs along with each compound at different concentrations. IL1β and TNFα cytokine release were monitored by ELISA to calculate the IC50. U937 monocyte (0.6 ml at 1.5*10^6/ml) were treated with each compound at different concentrations for 16 h. Cells were then stained with Trypan blue to differentiate dead cells, and calculate the LD50. Therapeutic index (TI)=LD50/IC50. Compounds marked in red are high value targets (low IC50, high LD50) and require further testing in vivo.
Briefly, compounds were added to human PBMC cells at different concentrations that were exposed to […] and cytokine secretion was monitored by ELISA to determine the IC50. Compounds were also added to U937 monocytes at different concentrations, and cells were stained with trypan blue to determine the LD50. […] Several functional studies were undertaken to assess anti-inflammatory effects focusing on BC-1215.

PBMC cells = experiment: LPS-treated PBMC human cytokine array; type: cell-based; conditions: 10 ug/ml compound, 2 ug/ml LPS, 16 hrs
Experimental: FIG. 9. BC-1215 inhibits a broad spectrum of Th1 panel cytokines. PBMC cells (0.6 ml at 1.5*10^6/ml) were treated with 2 ug/ml LPS for 16 his with BC-1215 at 10 ug/ml. Cytokine release was monitored by the human cytokine array (R&D systems).
PBMC cells were treated with 2 ug/ml LPS for 16 hrs along with BC-1215 at 10 ug/ml. Cytokine release was monitored by a human cytokine array (R&D systems). […] These cytokines are tightly linked to the pathogenesis of many pro-inflammatory diseases, some of which have led to the use of blocking cytokine antibodies to reduce disease severity. For example: GM-CSF drives inflammation in rheumatoid arthritis (RA), and currently, GM-CSF blocking antibodies (MOR103) have been tested in Phase 1b/2a trial in patients suffering from RA.

MLE cells = MLE cells protein immunoblotting; type: cell-based, murine; conditions: different concentrations, 16 h
Excerpt: FIGS. 10A-10E. BC-1215 inhibits FBXO3 and decreases TRAF protein levels. FIG. 10A. […] FIG. 10B. In vitro ubiquitination assays. […] FIG. 10C. […] Cells were collected and assayed for immunoblotting. FIG. 10D. […] FIG. 10E.
BC-1215 inhibits FBXO3 and decreases TRAF protein levels. […] Cells were collected and assayed for protein immunoblotting.

C57BL6 mice [1] = type: in vivo; conditions: mouse, in vivo
C57BL6 mice [2] = experiment: TPA induced ear edema; type: in vivo; conditions: topical, 8, 40, 200 ug/ear, 18 h after TPA
Experimental: FIGS. 15A-15C. […] FIG. 15A-15C. C57BL6 mice were deeply anesthetized with ketamine (80-100 mg/kg i.p.) and xylazine (10 mg/kg i.p.). 20 μl of ethanol solution of BC-1215 was applied to ears at 8, 40, 200 ug/ear 30 min after TPA administration (2 μg/ear). Comparisons included equal volumes of ethanol (vehicle control). 18 h after TPA administration, mice were euthanized; the thickness of the ear was measured using a micrometer (FIG. 15B). Ear punch biopsies were also taken immediately, weighed and graphed (FIG. 15C).
FIGS. 23A-23D. […] Different dose of BC-1261 was applied to ears of mice at various doses 30 min after TPA administration (2 μg/ear). A. Gross comparisons were made with equal volumes of ethanol as a vehicle control (CON). 18 h after TPA administration, mice were euthanized and the thickness of the ear was measured using a micrometer (B). Autopsy sample were also taken to measure MPO activity (C) and calculate ear edema (D). The data represent n=6 mice/group, *P<0.05 versus TPA.
Topical application of BC-1215 as an anti-inflammatory agent was tested in a model of 12-O-tetradecanoylphorbol-13-acetate (TPA) induced ear edema (Bralley et. al., J Inflamm (LOnd), 2008. 5:p.1). Briefly, 20 μl of an ethanol solution of BC-1215 was applied to ears of mice at 8, 40, and 200 ug/ear for 30 min after TPA administration (2 μg/ear). Comparisons included equal volumes of ethanol (vehicle control). 18 h after TPA administration, mice were euthanized; the thickness of the ear was measured using a micrometer. Ear punch biopsies were also taken immediately, weighed, and graphed.

C57BL6 mice [3] = experiment: DSS induced (acute) colitis; type: in vivo; conditions: 200 ug IP daily, 3.5% DSS up to five days
Experimental: FIGS. 17A-17D. BC-1215 reduces DSS induced colonic inflammation. FIGS. 17A-FIG. 17C. C57BL6 mice were fed with water containing 3.5% dextran sulfate sodium (DSS) for up to five days. Mice were treated with either vehicle or 100 ug of BC-1215 daily (via IP injection). Mice were then euthanized; the length of the colon was measured and graphed in (FIG. 17A). Colonic tissues were also analyzed for IL1β (FIG. 17B) and TNFα (FIG. 17C) by ELISA. (n=4 mice/group, *p<0.05 versus DSS) FIG. 17D, H&E staining was performed on colonic samples. (n=4 mice/group, *p<0.05 versus DSS)
FIGS. 24A-24E. […] A-D. C57BL6 mice were fed with water ad lib containing 3.5% dextran sulfate sodium (DSS) for up to five days. Mice were treated with either vehicle (control [CON]) or BC-1261 (150 μg) daily (via an i.p. injection), or BC-1261 were administered into drinking water at 30 μg/ml (po). Mice were then euthanized and the length of the colon was measured and graphed in (A-B). Colonic tissues were also analyzed for TNFα (C) and IL6(D). E. H&E staining was performed on colonic sections. The data represent n=4 mice/group, *P<0.05 versus DSS and **P<0.05 versus CON.
BC-1215 ameliorates DSS induced colitis. BC-1215 was also tested in a mouse colitis model to confirm its anti-inflammatory activity. Briefly, C57BL6 mice were fed with water containing 3.5% dextran sulfate sodium (DSS) for up to five days. Mice were treated with either vehicle or 200 ug of BC-1215 daily (via IP injection). Mice were then euthanized; the length of colons was measured. […] Colonic tissue cytokine levels were analyzed. […] Thus, the FBXO3 inhibitor BC-1215 suppresses inflammation in chemical induced colitis model in mice.

Experimental for Hela cells: Hela cells were treated with BC-1215 at different concentrations for 24 h before cell cycle analysis (BD bioscience).

For c1ccc(-c2ccc(CNCCNCc3ccc(-c4ccccn4)cc3)cc2)nc1 [BC-1215], the LD50 (U937 monocyte) was “low”, the “TH1 panel cytokine release” value (PBMC cells) was “significantly suppress the majority of the TH1 panel cytokines” and the FBXL2 protein levels (MLE cells) was “increased FBXL2 protein levels in a dose dependent manner”. For the same compound, the TRAF protein levels (MLE cells) was “decreasing TRAF protein levels”, the cell infiltrates (C57BL6 mice [1]) was “remarkably decreased” and the lavage cell counts (C57BL6 mice [1]) was “remarkably decreased”. For the same compound, the lavage protein concentration (C57BL6 mice [1]) was “remarkably decreased”, the lung compliance (C57BL6 mice [1]) was “increased compliance” and the lung edema (C57BL6 mice [1]) was “remarkably decreased”. For the same compound, the lung elastance (C57BL6 mice [1]) was “reduced elastance”, the survival (C57BL6 mice [1]) was “significantly increased their survival” and the ear edema (C57BL6 mice [2]) was “significantly resolve edema”. The ear thickness (C57BL6 mice [2]) was “significantly reduced”, the “ear weight (punch biopsies)” value (C57BL6 mice [2]) was “significantly reduced” and the “IL1β levels in colon tissues” value (C57BL6 mice [3]) was “remarkable reduction”. The “TNFα levels in colon tissues” value (C57BL6 mice [3]) was “remarkable reduction”, the colon length (C57BL6 mice [3]) was “no significant decrease in colon length compared to control” and the “colonic tissue injury (H&E)” value (C57BL6 mice [3]) was “significantly reduced”. For the same compound, the cell cycle progression (Hela cells) was “did not significantly alter cell cycle progression”.
